{
  "source": "BindingDB's records for doi:10.1021/jm030354b",
  "about": "(Millennium Pharmaceuticals, 2004)",
  "data": [
    {"molecular_target": "Integrin alpha-IIb/beta-3 (Homo sapiens, UniProt P08514+P05106)", "sequence (P05106 27-788 limits assumed)": "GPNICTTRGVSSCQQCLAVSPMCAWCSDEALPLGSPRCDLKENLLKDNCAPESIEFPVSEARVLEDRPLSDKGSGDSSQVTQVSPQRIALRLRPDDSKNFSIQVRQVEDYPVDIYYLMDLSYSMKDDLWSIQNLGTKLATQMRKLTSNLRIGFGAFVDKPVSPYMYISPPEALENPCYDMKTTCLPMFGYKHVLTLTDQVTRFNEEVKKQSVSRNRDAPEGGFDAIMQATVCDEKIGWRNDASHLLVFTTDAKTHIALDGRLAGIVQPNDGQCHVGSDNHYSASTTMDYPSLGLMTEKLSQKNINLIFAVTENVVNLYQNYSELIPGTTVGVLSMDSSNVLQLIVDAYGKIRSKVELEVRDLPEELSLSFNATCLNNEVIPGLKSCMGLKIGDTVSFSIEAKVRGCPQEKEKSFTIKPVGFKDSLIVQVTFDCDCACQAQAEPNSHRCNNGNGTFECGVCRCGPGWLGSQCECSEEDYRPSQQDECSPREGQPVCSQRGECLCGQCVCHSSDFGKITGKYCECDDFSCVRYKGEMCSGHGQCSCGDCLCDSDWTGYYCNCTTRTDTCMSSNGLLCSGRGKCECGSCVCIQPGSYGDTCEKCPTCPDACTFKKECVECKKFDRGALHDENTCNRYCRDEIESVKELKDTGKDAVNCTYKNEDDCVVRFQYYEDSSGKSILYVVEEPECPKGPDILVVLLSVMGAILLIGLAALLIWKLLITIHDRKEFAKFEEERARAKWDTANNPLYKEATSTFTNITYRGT", "sequence (P08514 32-887 limits assumed)": "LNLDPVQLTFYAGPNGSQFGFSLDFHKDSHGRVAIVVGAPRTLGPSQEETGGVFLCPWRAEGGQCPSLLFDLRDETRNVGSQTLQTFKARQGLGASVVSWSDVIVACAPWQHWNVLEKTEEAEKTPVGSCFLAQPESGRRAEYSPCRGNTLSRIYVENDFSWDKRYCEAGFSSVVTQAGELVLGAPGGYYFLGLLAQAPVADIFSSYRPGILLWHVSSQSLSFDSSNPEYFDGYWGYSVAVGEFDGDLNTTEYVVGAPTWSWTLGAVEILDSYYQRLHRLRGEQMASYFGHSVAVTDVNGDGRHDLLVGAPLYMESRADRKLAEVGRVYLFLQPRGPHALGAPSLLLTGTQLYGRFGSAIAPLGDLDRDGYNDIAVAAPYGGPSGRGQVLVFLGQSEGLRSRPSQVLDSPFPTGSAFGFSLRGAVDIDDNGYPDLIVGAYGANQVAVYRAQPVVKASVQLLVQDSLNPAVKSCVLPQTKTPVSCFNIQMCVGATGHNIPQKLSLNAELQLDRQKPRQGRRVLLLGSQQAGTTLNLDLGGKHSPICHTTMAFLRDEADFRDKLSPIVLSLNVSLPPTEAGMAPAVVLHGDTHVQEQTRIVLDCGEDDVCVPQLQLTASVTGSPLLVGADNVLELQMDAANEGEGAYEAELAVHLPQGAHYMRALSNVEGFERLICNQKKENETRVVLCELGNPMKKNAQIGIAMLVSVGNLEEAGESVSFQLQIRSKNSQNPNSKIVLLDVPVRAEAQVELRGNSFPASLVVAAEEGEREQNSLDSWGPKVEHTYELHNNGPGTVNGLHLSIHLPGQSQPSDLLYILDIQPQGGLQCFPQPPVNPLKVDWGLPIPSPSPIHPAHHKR", "sequence (P08514 891-1039 limits assumed)": "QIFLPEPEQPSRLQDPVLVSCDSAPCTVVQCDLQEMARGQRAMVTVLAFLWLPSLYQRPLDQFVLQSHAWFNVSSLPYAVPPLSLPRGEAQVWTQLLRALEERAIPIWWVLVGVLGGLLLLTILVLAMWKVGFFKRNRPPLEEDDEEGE", "assay": "Inhibition of platelet aggregation induced by 20 uM adenosine 5-diphosphate (ADP) in citreated human platelet rich plasma (h-PRP)", "units": {"IC50": "nM"}, "values": [
      {"smiles": "CCCCOC(=O)N[C@@H](CCC(=O)N1CCC2(CC1)C(=O)N(c1ccc(C(=N)N)cc1)C(=O)N2C)C(=O)O", "note": "[2-Butoxycarbonylamino-5-[3-(4-carbamimidoyl-phenyl)-1-methyl-2,4-dioxo-1,3,8-triaza-spiro[4.5]dec-8-yl]-5-oxo-pentanoic acid]", "IC50": 65},
      {"smiles": "Cc1ccc(S(=O)(=O)N[C@@H](CNC(=O)N2CCC3(CC2)C(=O)N(c2ccc(C(=N)N)cc2)C(=O)N3C)C(=O)O)cc1", "note": "[(S)-3-{[3-(4-Carbamimidoyl-phenyl)-1-methyl-2,4-dioxo-1,3,8-triaza-spiro[4.5]decane-8-carbonyl]-amino}-2-(toluene-4-sulfonylamino)-propionic acid]", "IC50": 59},
      {"smiles": "CCCCOC(=O)N[C@@H](CCC(=O)N1CCC2(CC1)CC(=O)N(c1ccc(C(=N)N)cc1)C2=O)C(=O)O", "note": "[2-Butoxycarbonylamino-5-[2-(4-carbamimidoyl-phenyl)-1,3-dioxo-2,8-diaza-spiro[4.5]dec-8-yl]-5-oxo-pentanoic acid]", "IC50": 270},
      {"smiles": "N=C(N)c1ccc(N2CCC3(CCN(CCCCC(=O)O)CC3)C2=O)cc1", "note": "[5-[2-(4-Carbamimidoyl-phenyl)-1-oxo-2,8-diaza-spiro[4.5]dec-8-yl]-pentanoic acid]", "IC50": 5180},
      {"smiles": "N=C(N)c1ccc(N2CC3(CCN(C(=O)CCC(=O)O)CC3)CC2=O)cc1", "note": "[4-[2-(4-Carbamimidoyl-phenyl)-3-oxo-2,8-diaza-spiro[4.5]dec-8-yl]-4-oxo-butyric acid]", "IC50": 5700},
      {"smiles": "Cc1noc(C)c1S(=O)(=O)N[C@@H](CCC(=O)N1CCC2(CC1)C(=O)N(c1ccc(C(=N)N)cc1)C(=O)N2C)C(=O)O", "note": "[5-[3-(4-Carbamimidoyl-phenyl)-1-methyl-2,4-dioxo-1,3,8-triaza-spiro[4.5]dec-8-yl]-2-(3,5-dimethyl-isoxazole-4-sulfonylamino)-5-oxo-pentanoic acid]", "IC50": 118},
      {"smiles": "CN1C(=O)N(c2ccc(C(=N)N)cc2)CC12CCN(C(=O)CCCC(=O)O)CC2", "note": "[5-[3-(4-Carbamimidoyl-phenyl)-1-methyl-2-oxo-1,3,8-triaza-spiro[4.5]dec-8-yl]-5-oxo-pentanoic acid]", "IC50": 674},
      {"smiles": "CCNC(=N)c1ccc(N2CCC3(CCN(C(=O)CCCC(=O)O)CC3)C2=O)cc1", "note": "[5-{2-[4-(N-Ethylcarbamimidoyl)-phenyl]-1-oxo-2,8-diaza-spiro[4.5]dec-8-yl}-5-oxo-pentanoic acid]", "IC50": 7540},
      {"smiles": "CN1C(=O)N(c2ccc(C(=N)N)cc2)C(=O)C12CCN(CCCCC(=O)O)CC2", "note": "[5-[3-(4-Carbamimidoyl-phenyl)-1-methyl-2,4-dioxo-1,3,8-triaza-spiro[4.5]dec-8-yl]-pentanoic acid]", "IC50": 7560},
      {"smiles": "C[C@H](CC(=O)O)NC(=O)N1CCC2(CC1)CCN(c1ccc(C(=N)N)cc1)C2=O", "note": "[(R)-3-{[2-(4-Carbamimidoyl-phenyl)-1-oxo-2,8-diaza-spiro[4.5]decane-8-carbonyl]-amino}-butyric acid]", "IC50": 68},
      {"smiles": "N=C(N)c1ccc(N2CC3(CCN(C(=O)CC(CC(=O)O)c4ccccc4)CC3)CC2=O)cc1", "note": "(configuration not stated) [5-[2-(4-Carbamimidoyl-phenyl)-3-oxo-2,8-diaza-spiro[4.5]dec-8-yl]-5-oxo-3-phenyl-pentanoic acid]", "IC50": 100},
      {"smiles": "N=C(N)c1ccc(N2CC3(CCN(C(=O)CCCCC(=O)O)CC3)CC2=O)cc1", "note": "[6-[2-(4-Carbamimidoyl-phenyl)-3-oxo-2,8-diaza-spiro[4.5]dec-8-yl]-6-oxo-hexanoic acid]", "IC50": 4100},
      {"smiles": "N=C(N)c1ccc(N2CC3(CCN(C(=O)NCCC(=O)O)CC3)NC2=O)cc1", "note": "[3-{[3-(4-Carbamimidoyl-phenyl)-2-oxo-1,3,8-triaza-spiro[4.5]decane-8-carbonyl]-amino}-propionic acid]", "IC50": 3770},
      {"smiles": "CN1C(=O)N(c2ccc(C(=N)N)cc2)C(=O)C12CCN(C(=O)NC(CC(=O)O)c1ccccc1)CC2", "note": "(configuration not stated) [3-{[3-(4-Carbamimidoyl-phenyl)-1-methyl-2,4-dioxo-1,3,8-triaza-spiro[4.5]decane-8-carbonyl]-amino}-3-phenyl-propionic acid]", "IC50": 103},
      {"smiles": "CCCCOC(=O)N[C@@H](CCC(=O)N1CCC2(CC1)CCN(c1ccc(C(=N)N)cc1)C2=O)C(=O)O", "note": "[2-Butoxycarbonylamino-5-[2-(4-carbamimidoyl-phenyl)-1-oxo-2,8-diaza-spiro[4.5]dec-8-yl]-5-oxo-pentanoic acid]", "IC50": 66},
      {"smiles": "N=C(N)c1ccc(N2C(=O)NC3(CCN(C(=O)NCCC(=O)O)CC3)C2=O)cc1", "note": "[3-{[3-(4-Carbamimidoyl-phenyl)-2,4-dioxo-1,3,8-triaza-spiro[4.5]decane-8-carbonyl]-amino}-propionic acid]", "IC50": 468},
      {"smiles": "CC(C)(COC(=O)N1CCC2(CC1)CC(=O)N(c1ccc(C(=N)N)cc1)C2)C(=O)O", "note": "[2-(4-Carbamimidoyl-phenyl)-3-oxo-2,8-diaza-spiro[4.5]decane-8-carboxylic acid 2-carboxy-2-methyl-propyl ester]", "IC50": 3600},
      {"smiles": "N=C(N)c1ccc(N2CCC3(CCN(C(=O)CCCCC(=O)O)CC3)C2=O)cc1", "note": "[6-[2-(4-Carbamimidoyl-phenyl)-1-oxo-2,8-diaza-spiro[4.5]dec-8-yl]-6-oxo-hexanoic acid]", "IC50": 3400},
      {"smiles": "Cc1ccc(S(=O)(=O)N[C@@H](CNC(=O)N2CCC3(CC2)CCN(c2ccc(C(=N)N)cc2)C3=O)C(=O)O)cc1", "note": "[3-{[2-(4-Carbamimidoyl-phenyl)-1-oxo-2,8-diaza-spiro[4.5]decane-8-carbonyl]-amino}-2-(toluene-4-sulfonylamino)-propionic acid]", "IC50": 66},
      {"smiles": "N=C(N)c1ccc(N2CC3(CCN(C(=O)CC(=O)O)CC3)CC2=O)cc1", "note": "[3-[2-(4-Carbamimidoyl-phenyl)-3-oxo-2,8-diaza-spiro[4.5]dec-8-yl]-3-oxo-propionic acid]", "IC50": 7400},
      {"smiles": "N=C(N)c1ccc(N2C(=O)CC3(CCN(C(=O)NCCC(=O)O)CC3)C2=O)cc1", "note": "[3-{[2-(4-Carbamimidoyl-phenyl)-1,3-dioxo-2,8-diaza-spiro[4.5]decane-8-carbonyl]-amino}-propionic acid]", "IC50": 640},
      {"smiles": "N=C(N)c1ccc(N2CCC3(CCN(C(=O)CCC(=O)O)CC3)C2=O)cc1", "note": "[4-[2-(4-Carbamimidoyl-phenyl)-1-oxo-2,8-diaza-spiro[4.5]dec-8-yl]-4-oxo-butyric acid]", "IC50": 733},
      {"smiles": "CC(CC(=O)O)NC(=O)N1CCC2(CC1)CCN(c1ccc(C(=N)N)cc1)C2=O", "note": "(configuration not stated) [3-{[2-(4-Carbamimidoyl-phenyl)-1-oxo-2,8-diaza-spiro[4.5]decane-8-carbonyl]-amino}-butyric acid]", "IC50": 122},
      {"smiles": "CN1C(=O)N(c2ccc(C(=N)N)cc2)CC12CCN(C(=O)CC(CC(=O)O)c1ccccc1)CC2", "note": "(configuration not stated) [5-[3-(4-Carbamimidoyl-phenyl)-1-methyl-2-oxo-1,3,8-triaza-spiro[4.5]dec-8-yl]-5-oxo-3-phenyl-pentanoic acid]", "IC50": 80},
      {"smiles": "N=C(N)c1ccc(N2CCC3(CCN(C(=O)CC(CC(=O)O)c4ccccc4)CC3)C2=O)cc1", "note": "(configuration not stated) [5-[2-(4-Carbamimidoyl-phenyl)-1-oxo-2,8-diaza-spiro[4.5]dec-8-yl]-5-oxo-3-phenyl-pentanoic acid]", "IC50": 149},
      {"smiles": "CN1C(=O)N(c2ccc(C(=N)N)cc2)C(=O)C12CCN(C(=O)CCCC(=O)O)CC2", "note": "[5-[3-(4-Carbamimidoyl-phenyl)-1-methyl-2,4-dioxo-1,3,8-triaza-spiro[4.5]dec-8-yl]-5-oxo-pentanoic acid]", "IC50": 700},
      {"smiles": "N=C(N)c1ccc(N2CCC3(CCN(C(=O)CC(=O)O)CC3)C2=O)cc1", "note": "[3-[2-(4-Carbamimidoyl-phenyl)-1-oxo-2,8-diaza-spiro[4.5]dec-8-yl]-3-oxo-propionic acid]", "IC50": 12500}
    ]}
  ]
}
